Activity calls are given as the source filed them. No cut-off for these calls is given here.
Columns and labels:
[1] = tested on: RAW264.7; experiment: Anti-inflammatory activity in mouse RAW264.7 cells assessed as inhibition of LPS-induced NO production incubated for 36 hrs by Griess assay; format: functional, cell-based; settings: for IC50: RAW264.7, 36 h
[2] = biological target: Acetylcholinesterase (Homo sapiens, UniProt P22303); experiment: Inhibition of AChe (unknown origin) incubated for 0.25 hrs by DTNB-reagent based Ellman's method
[3] = tested on: RAW264.7; experiment: Anti-inflammatory activity in mouse RAW264.7 cells assessed as downregulation of the LPS-induced IL-10 mRNA expression at 12.5 to 50 uM by qRT-PCR analysis; format: functional, cell-based; settings: dose 12.5-50 µM
[4] = tested on: RAW264.7; experiment: Anti-inflammatory activity in mouse RAW264.7 cells assessed as alleviation of LPS-induced COX-2 mRNA expression level at 10 to 40 uM by qRT-PCR analysis; format: functional, cell-based; settings: dose 10-40 µM
[5] = tested on: RAW264.7; experiment: Anti-inflammatory activity in mouse RAW264.7 cells assessed as alleviation of LPS-induced TNF-alpha mRNA expression level at 10 to 40 uM by qRT-PCR analysis; format: functional, cell-based; settings: dose 10-40 µM
[6] = tested on: RAW264.7; experiment: Anti-inflammatory activity in mouse RAW264.7 cells assessed as alleviation of LPS-induced IL-6 mRNA expression level at 10 to 40 uM by qRT-PCR analysis; format: functional, cell-based; settings: dose 10-40 µM
[7] = tested on: RAW264.7; experiment: Anti-inflammatory activity in mouse RAW264.7 cells assessed as alleviation of LPS-induced IL-1 beta mRNA expression level at 10 to 40 uM by qRT-PCR analysis; format: functional, cell-based; settings: dose 10-40 µM
[8] = tested on: RAW264.7; experiment: Anti-inflammatory activity in mouse RAW264.7 cells assessed as downregulation of the LPS-induced iNOS expression at 12.5 to 50 uM by qRT-PCR analysis; format: functional, cell-based; settings: dose 12.5-50 µM
[9] = tested on: RAW264.7; experiment: Anti-inflammatory activity in mouse RAW264.7 cells assessed as alleviation of LPS-induced TNF-alpha mRNA expression level at 12.5 to 50 uM by qRT-PCR analysis; format: functional, cell-based; settings: dose 12.5-50 µM
[10] = tested on: RAW264.7; experiment: Anti-inflammatory activity in mouse RAW264.7 cells assessed as alleviation of LPS-induced IL-6 mRNA expression level at 12.5 to 50 uM by qRT-PCR analysis; format: functional, cell-based; settings: dose 12.5-50 µM
[11] = tested on: RAW264.7; experiment: Anti-inflammatory activity in mouse RAW264.7 cells assessed as alleviation of LPS-induced cox-2 mRNA expression level at 12.5 to 50 uM by qRT-PCR analysis; format: functional, cell-based; settings: dose 12.5-50 µM
[12] = tested on: RAW264.7; experiment: Anti-inflammatory activity in mouse RAW264.7 cells assessed as alleviation of LPS-induced IL-1 beta mRNA expression level at 12.5 to 50 uM by qRT-PCR analysis; format: functional, cell-based; settings: dose 12.5-50 µM

Acetylcholinesterase, sequence (P22303 whole entry): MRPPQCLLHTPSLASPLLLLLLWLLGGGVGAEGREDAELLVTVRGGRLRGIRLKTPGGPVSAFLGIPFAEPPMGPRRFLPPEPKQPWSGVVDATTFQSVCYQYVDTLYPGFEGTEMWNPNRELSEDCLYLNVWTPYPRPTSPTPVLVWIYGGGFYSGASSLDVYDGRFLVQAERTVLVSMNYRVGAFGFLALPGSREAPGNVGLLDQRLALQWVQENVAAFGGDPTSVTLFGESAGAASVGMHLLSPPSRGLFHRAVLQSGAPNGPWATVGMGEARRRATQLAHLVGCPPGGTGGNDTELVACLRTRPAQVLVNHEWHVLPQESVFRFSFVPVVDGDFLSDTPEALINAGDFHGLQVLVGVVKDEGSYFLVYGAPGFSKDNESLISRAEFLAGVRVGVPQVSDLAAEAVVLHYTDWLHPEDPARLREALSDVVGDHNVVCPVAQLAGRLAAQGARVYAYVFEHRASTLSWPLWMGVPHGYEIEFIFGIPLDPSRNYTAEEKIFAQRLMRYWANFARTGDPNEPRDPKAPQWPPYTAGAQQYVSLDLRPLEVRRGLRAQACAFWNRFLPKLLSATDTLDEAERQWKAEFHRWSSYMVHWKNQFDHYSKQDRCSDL

SMILES	Activity [1]	IC50 [2] [µM]	further results
COC(=O)c1c(C)cc(O)c(Cc2c(O)cc(C)cc2O)c1O	inactive	15	–
OCc1cc(O)cc(O)c1	inactive	28	–
COCc1c(O)c(Oc2c(C=O)c(O)cc(C)c2C(=O)OC)c2c(c1O)C(=O)O[C@H]2O	inactive	7.1	–
CCOC(=O)c1c(C)cc(OC(=O)c2c(C)cc(O)cc2O)cc1O	inactive	15	–
CCOC(=O)c1c(O)cc(O)c(Cc2c(O)cc(C)c(C(=O)OCC)c2O)c1C	inactive	19	–
CC(=O)C1=C(O)C=C2Oc3c(C(C)=O)c(O)c(C)c(O)c3[C@@]2(C)C1=O [(+)-USNIC ACID]	inactive	28	–
COC(=O)c1c(C)cc(O)cc1O [METHYL ORSELLINATE]	inactive	24	–
CCOC(=O)c1c(O)cc(O)c(Cc2c(O)cc(C)c(C(=O)OC)c2O)c1C	–	20	IC50 [1]: 35 µM; Activity [3]: Active
Cc1cc(O)cc(O)c1C(=O)O [ORSELLINIC ACID]	inactive	26	–
COC(=O)c1c(C)cc(O)c(Cc2c(C)c(C(=O)OC)c(O)c(C)c2O)c1O	–	–	IC50 [1]: 20 µM; Activity [4]: Active; Activity [5]: Active; Activity [6]: Active; Activity [7]: Active
Cc1cc(O)c(C)c(O)c1	inactive	25	–
Cc1cc(O)cc(OC(=O)c2c(C)cc(O)c(C=O)c2O)c1	inactive	15	–
CCOC(=O)c1c(C)cc(O)c(Cc2c(C)c(C(=O)OC)c(O)c(C)c2O)c1O	–	–	IC50 [1]: 28 µM; Activity [8]: Active; Activity [9]: Active; Activity [10]: Active; Activity [11]: Active; Activity [12]: Active
